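Step 1: Grow cells in 96-well plates. Step 2: Expose to compound for 48 hours at 5 concentrations. Step 3: Interpolate endpoints linearly; if unreached, use highest concentration. Here, GI50 denotes the concentration required for 50% inhibition of growth. The concentration for full growth arrest is given as TGI.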
What was measured:
Assay in all cases: DTP human tumour cell line panel, 48 h
RPMI-8226 leukemia = tested on: RPMI-8226 leukemia
SF-268 CNS = tested on: SF-268 CNS
HCC-2998 colon = tested on: HCC-2998 colon
TK-10 renal = tested on: TK-10 renal
ACHN renal = tested on: ACHN renal
EKVX NSCLC = tested on: EKVX NSCLC
SNB-19 CNS = tested on: SNB-19 CNS
KM12 colon = tested on: KM12 colon
K-562 leukemia = tested on: K-562 leukemia
OVCAR-3 ovarian = tested on: OVCAR-3 ovarian
MDA-MB-231 breast = tested on: MDA-MB-231 breast
HOP-92 NSCLC = tested on: HOP-92 NSCLC
DU-145 prostate = tested on: DU-145 prostate
U251 CNS = tested on: U251 CNS
SF-295 CNS = tested on: SF-295 CNS
SK-MEL-28 melanoma = tested on: SK-MEL-28 melanoma
CCRF-CEM leukemia = tested on: CCRF-CEM leukemia
HT29 colon = tested on: HT29 colon
NCI-H522 lung = tested on: NCI-H522 lung
NCI/ADR-RES ovarian = tested on: NCI/ADR-RES ovarian
HL-60(TB) leukemia = tested on: HL-60(TB) leukemia
SN12C renal = tested on: SN12C renal
MDA-MB-435 = tested on: MDA-MB-435
CAKI-1 renal = tested on: CAKI-1 renal
MALME-3M melanoma = tested on: MALME-3M melanoma
UO-31 renal = tested on: UO-31 renal
BT-549 breast = tested on: BT-549 breast
SK-MEL-2 melanoma = tested on: SK-MEL-2 melanoma
RXF 393 renal = tested on: RXF 393 renal
OVCAR-8 ovarian = tested on: OVCAR-8 ovarian
HOP-62 NSCLC = tested on: HOP-62 NSCLC
NCI-H460 lung = tested on: NCI-H460 lung
SNB-75 CNS = tested on: SNB-75 CNS
NCI-H23 lung = tested on: NCI-H23 lung
UACC-257 melanoma = tested on: UACC-257 melanoma
COLO 205 colon = tested on: COLO 205 colon
OVCAR-5 ovarian = tested on: OVCAR-5 ovarian
MOLT-4 leukemia = tested on: MOLT-4 leukemia
SW-620 colon = tested on: SW-620 colon
UACC-62 melanoma = tested on: UACC-62 melanoma
SF-539 CNS = tested on: SF-539 CNS
OVCAR-4 ovarian = tested on: OVCAR-4 ovarian
MCF7 breast = tested on: MCF7 breast
SK-MEL-5 melanoma = tested on: SK-MEL-5 melanoma
M14 melanoma = tested on: M14 melanoma
SR leukemia = tested on: SR leukemia
NCI-H226 lung = tested on: NCI-H226 lung
IGROV1 ovarian = tested on: IGROV1 ovarian
PC-3 prostate = tested on: PC-3 prostate
A498 renal = tested on: A498 renal
A549 NSCLC = tested on: A549 NSCLC
786-0 renal = tested on: 786-0 renal
HS 578T breast = tested on: HS 578T breast
HCT-116 colon = tested on: HCT-116 colon
LOX IMVI melanoma = tested on: LOX IMVI melanoma
HCT-15 colon = tested on: HCT-15 colon

`COc1ccc2sc3c(NCCCNCCO)nc4ccccc4c3c(=O)c2c1` showed a GI50 (RPMI-8226 leukemia) of 1710 nM, a TGI (RPMI-8226 leukemia) of 3860 nM and a GI50 (SF-268 CNS) of 1520 nM. It also gave a TGI (SF-268 CNS) of 3160 nM, a GI50 (HCC-2998 colon) of 1680 nM and a TGI (HCC-2998 colon) of 3290 nM. For the same compound, the GI50 (TK-10 renal) was 1830 nM, the TGI (TK-10 renal) was 3380 nM and the GI50 (ACHN renal) was 1630 nM. It also gave a TGI (ACHN renal) of 2990 nM, a GI50 (EKVX NSCLC) of 1450 nM and a TGI (EKVX NSCLC) of 2940 nM. For the same compound, the GI50 (SNB-19 CNS) was 1650 nM, the TGI (SNB-19 CNS) was 3150 nM and the GI50 (KM12 colon) was 1620 nM. The TGI (KM12 colon) was 3120 nM, the GI50 (K-562 leukemia) was 1830 nM and the TGI (K-562 leukemia) was 4320 nM. For the same compound, the GI50 (OVCAR-3 ovarian) was 1740 nM, the TGI (OVCAR-3 ovarian) was 3210 nM and the GI50 (MDA-MB-231 breast) was 1480 nM. The TGI (MDA-MB-231 breast) was 2950 nM, the GI50 (HOP-92 NSCLC) was 1350 nM and the TGI (HOP-92 NSCLC) was 6740 nM. For the same compound, the GI50 (DU-145 prostate) was 1600 nM, the TGI (DU-145 prostate) was 2980 nM and the GI50 (U251 CNS) was 1600 nM. The TGI (U251 CNS) was 3160 nM, the GI50 (SF-295 CNS) was 1730 nM and the TGI (SF-295 CNS) was 3150 nM. The GI50 (SK-MEL-28 melanoma) was 1800 nM, the TGI (SK-MEL-28 melanoma) was 3270 nM and the GI50 (CCRF-CEM leukemia) was 1740 nM. The TGI (CCRF-CEM leukemia) was 4060 nM, the GI50 (HT29 colon) was 1570 nM and the TGI (HT29 colon) was 3030 nM. It also gave a GI50 (NCI-H522 lung) of 1740 nM, a TGI (NCI-H522 lung) of 3370 nM and a GI50 (NCI/ADR-RES ovarian) of 1760 nM. The TGI (NCI/ADR-RES ovarian) was 3530 nM, the GI50 (HL-60(TB) leukemia) was 1980 nM and the TGI (HL-60(TB) leukemia) was 3890 nM. For the same compound, the GI50 (SN12C renal) was 1600 nM, the TGI (SN12C renal) was 3120 nM and the GI50 (MDA-MB-435) was 1610 nM. The TGI (MDA-MB-435) was 3010 nM, the GI50 (CAKI-1 renal) was 1570 nM and the TGI (CAKI-1 renal) was 2990 nM. It also gave a GI50 (MALME-3M melanoma) of 1690 nM, a TGI (MALME-3M melanoma) of 3260 nM and a GI50 (UO-31 renal) of 1560 nM. The TGI (UO-31 renal) was 2990 nM, the GI50 (BT-549 breast) was 10200 nM and the TGI (BT-549 breast) was 22700 nM. It also gave a GI50 (SK-MEL-2 melanoma) of 2080 nM, a TGI (SK-MEL-2 melanoma) of 4070 nM and a GI50 (RXF 393 renal) of 1310 nM. It also gave a TGI (RXF 393 renal) of 2700 nM, a GI50 (OVCAR-8 ovarian) of 1650 nM and a TGI (OVCAR-8 ovarian) of 3450 nM. For the same compound, the GI50 (HOP-62 NSCLC) was 1590 nM, the TGI (HOP-62 NSCLC) was 3260 nM and the GI50 (NCI-H460 lung) was 1510 nM. The TGI (NCI-H460 lung) was 2960 nM, the GI50 (SNB-75 CNS) was 1820 nM and the TGI (SNB-75 CNS) was 3340 nM. The GI50 (NCI-H23 lung) was 1730 nM, the TGI (NCI-H23 lung) was 3270 nM and the GI50 (UACC-257 melanoma) was 1930 nM. It also gave a TGI (UACC-257 melanoma) of 3990 nM, a GI50 (COLO 205 colon) of 1660 nM and a TGI (COLO 205 colon) of 3650 nM. For the same compound, the GI50 (OVCAR-5 ovarian) was 1600 nM, the TGI (OVCAR-5 ovarian) was 3050 nM and the GI50 (MOLT-4 leukemia) was 1930 nM. It also gave a TGI (MOLT-4 leukemia) of 3810 nM, a GI50 (SW-620 colon) of 1610 nM and a TGI (SW-620 colon) of 3130 nM. It also gave a GI50 (UACC-62 melanoma) of 1700 nM, a TGI (UACC-62 melanoma) of 3160 nM and a GI50 (SF-539 CNS) of 1650 nM. The TGI (SF-539 CNS) was 3100 nM, the GI50 (OVCAR-4 ovarian) was 1940 nM and the TGI (OVCAR-4 ovarian) was 4090 nM. For the same compound, the GI50 (MCF7 breast) was 1540 nM, the TGI (MCF7 breast) was 3100 nM and the GI50 (SK-MEL-5 melanoma) was 1760 nM. It also gave a TGI (SK-MEL-5 melanoma) of 3180 nM, a GI50 (M14 melanoma) of 1820 nM and a TGI (M14 melanoma) of 3480 nM. The GI50 (SR leukemia) was 1970 nM, the TGI (SR leukemia) was 5610 nM and the GI50 (NCI-H226 lung) was 2090 nM. It also gave a TGI (NCI-H226 lung) of 3750 nM, a GI50 (IGROV1 ovarian) of 1330 nM and a TGI (IGROV1 ovarian) of 2850 nM. The GI50 (PC-3 prostate) was 1580 nM, the TGI (PC-3 prostate) was 3100 nM and the GI50 (A498 renal) was 1490 nM. The TGI (A498 renal) was 2970 nM, the GI50 (A549 NSCLC) was 1680 nM and the TGI (A549 NSCLC) was 3310 nM. For the same compound, the GI50 (786-0 renal) was 1380 nM, the TGI (786-0 renal) was 2820 nM and the GI50 (HS 578T breast) was 1420 nM. It also gave a TGI (HS 578T breast) of 3480 nM, a GI50 (HCT-116 colon) of 1590 nM and a TGI (HCT-116 colon) of 3030 nM. The GI50 (LOX IMVI melanoma) was 1570 nM, the TGI (LOX IMVI melanoma) was 3000 nM and the GI50 (HCT-15 colon) was 1450 nM. For the same compound, the TGI (HCT-15 colon) was 2870 nM.
